Consider 14 compounds from US8822517B2, “Arylosulfonamides for the treatment of CNS diseases” (Adamed SP. Z O.O., priority 2010, dated 2014).

Each structure is given as a SMILES string.

Assay [1] has as its target serotoninergic 5-HT6 receptor (Homo sapiens, UniProt P50406). The assay can be described thus: Binding assay 5-HT6 (h), [3H]LSD, CHO cells. The settings on record: read-out: 5-HT6. Also on record: expressed in transfected cells; host or cells: CHO cells. The method, boiled down:
(§1)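 Scintillation counting detects receptor-bound radioligand. Compound tested at 1×10^−6 M.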

The target in assay [2] is serotoninergic 5-HT7 receptor (Homo sapiens, UniProt P34969). Description: Binding assay 5-HT7 (h), [3H]LSD, CHO cells. The settings on record: read-out: 5-HT7. Also on record: expressed in transfected cells; host or cells: CHO cells. A digest of the protocol: as §1
Chain of serotoninergic 5-HT7 receptor (P34969 whole entry): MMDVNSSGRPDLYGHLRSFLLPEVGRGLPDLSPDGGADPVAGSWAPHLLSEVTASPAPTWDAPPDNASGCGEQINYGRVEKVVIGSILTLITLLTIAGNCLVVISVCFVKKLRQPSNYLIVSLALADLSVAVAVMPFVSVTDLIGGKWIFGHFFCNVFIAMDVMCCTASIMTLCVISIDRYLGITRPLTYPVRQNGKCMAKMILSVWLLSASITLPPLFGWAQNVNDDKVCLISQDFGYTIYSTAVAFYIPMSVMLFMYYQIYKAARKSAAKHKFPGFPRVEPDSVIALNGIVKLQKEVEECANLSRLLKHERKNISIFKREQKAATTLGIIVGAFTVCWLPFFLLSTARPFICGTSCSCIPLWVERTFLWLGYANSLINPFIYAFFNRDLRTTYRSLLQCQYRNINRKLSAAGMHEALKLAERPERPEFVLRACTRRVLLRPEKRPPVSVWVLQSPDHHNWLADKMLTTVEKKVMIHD
The next assay addresses dopaminergic D2 receptor (Homo sapiens, UniProt P14416). The assay can be described thus: Binding assay D2S (h), [3H]methyl-spiperone, HEK-293 cells. The settings on record: read-out: D2 [%]. Also on record: expressed in transfected cells; host or cells: HEK-293 cells. The method, boiled down: as §1
The next assay deals with dopaminergic D3 receptor (Homo sapiens, UniProt P35462). The assay can be described thus: Binding assay D3 (h), [3H]methyl-spiperone, CHO cells. Also on record: expressed in transfected cells; host or cells: CHO cells. Particulars: read-out: D3 [%]. The method, boiled down: as §1
Chain of dopaminergic D3 receptor (P35462 whole entry): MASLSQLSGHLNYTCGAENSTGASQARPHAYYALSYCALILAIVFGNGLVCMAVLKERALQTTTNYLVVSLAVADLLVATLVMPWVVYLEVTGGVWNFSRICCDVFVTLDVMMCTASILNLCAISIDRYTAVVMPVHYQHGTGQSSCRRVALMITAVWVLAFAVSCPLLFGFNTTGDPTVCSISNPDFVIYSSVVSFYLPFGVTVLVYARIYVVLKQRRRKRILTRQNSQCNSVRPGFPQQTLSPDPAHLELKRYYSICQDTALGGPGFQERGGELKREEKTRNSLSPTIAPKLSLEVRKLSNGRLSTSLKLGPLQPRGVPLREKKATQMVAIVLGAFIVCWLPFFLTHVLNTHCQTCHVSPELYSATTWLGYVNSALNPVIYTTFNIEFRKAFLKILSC
Assay [3] addresses T1, serotonine transporter (SERT) receptor (Homo sapiens, UniProt P31645).
T1 construct: expressed in transfected cells; host or cells: CHO cells
The assay can be described thus: Binding assay SERT (h), [3H]imipramine, CHO cells. The settings on record: read-out: SERT [%]. The method, boiled down:
as §1

Assay [4] deals with T2, serotoninergic 5-HT1A receptor (Homo sapiens, UniProt P08908).
T2 sequence (P08908 1-422): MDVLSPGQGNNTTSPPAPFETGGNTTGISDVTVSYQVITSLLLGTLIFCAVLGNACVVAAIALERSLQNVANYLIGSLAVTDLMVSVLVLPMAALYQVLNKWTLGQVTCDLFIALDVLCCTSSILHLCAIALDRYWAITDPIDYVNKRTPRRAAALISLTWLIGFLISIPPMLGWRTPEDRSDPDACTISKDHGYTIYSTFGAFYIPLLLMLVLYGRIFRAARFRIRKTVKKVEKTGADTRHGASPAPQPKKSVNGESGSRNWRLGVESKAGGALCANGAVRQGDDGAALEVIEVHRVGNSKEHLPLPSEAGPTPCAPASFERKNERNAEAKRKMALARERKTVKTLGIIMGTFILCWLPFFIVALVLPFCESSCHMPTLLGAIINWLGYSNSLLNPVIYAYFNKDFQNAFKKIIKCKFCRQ
The assay can be described thus: Binding assay 5-HT1A (h), [3H]8-OH-DPAT, HEK-293 cells. Also on record: expressed in transfected cells; host or cells: HEK-293 cells. Particulars: read-out: 5-HT1A. The method, boiled down:
as §1

Assay [5] addresses serotoninergic 5-HT2A receptor (Homo sapiens, UniProt P28223). Description: Binding assay 5-HT2A (h), [3H]ketanserin, HEK-293 cells. Also on record: expressed in transfected cells; host or cells: HEK-293 cells. The settings on record: read-out: 5-HT2A. The method, boiled down: as §1
For another assay, the system named is adrenergic α1 receptor. The assay can be described thus: Binding assay α1 (non-selective), [3H]prazosin, rat cerebral cortex. Particulars: percent inhibition of control specific binding; compounds tested at 1×10^−6 M. A digest of the protocol:
as §1

Chain of dopaminergic D2 receptor (P14416 1-414 isoform P14416-2): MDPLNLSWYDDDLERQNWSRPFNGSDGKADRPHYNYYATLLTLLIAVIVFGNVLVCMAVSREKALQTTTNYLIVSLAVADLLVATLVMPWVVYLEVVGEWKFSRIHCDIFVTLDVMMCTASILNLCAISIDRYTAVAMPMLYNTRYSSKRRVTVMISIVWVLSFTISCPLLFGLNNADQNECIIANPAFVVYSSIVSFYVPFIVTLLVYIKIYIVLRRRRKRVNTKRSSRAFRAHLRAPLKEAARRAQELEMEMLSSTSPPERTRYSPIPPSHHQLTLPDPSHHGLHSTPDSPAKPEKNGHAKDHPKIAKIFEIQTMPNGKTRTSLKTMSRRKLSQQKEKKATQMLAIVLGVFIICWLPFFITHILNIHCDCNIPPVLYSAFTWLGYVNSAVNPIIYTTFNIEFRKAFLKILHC
T1 sequence (P31645 whole entry): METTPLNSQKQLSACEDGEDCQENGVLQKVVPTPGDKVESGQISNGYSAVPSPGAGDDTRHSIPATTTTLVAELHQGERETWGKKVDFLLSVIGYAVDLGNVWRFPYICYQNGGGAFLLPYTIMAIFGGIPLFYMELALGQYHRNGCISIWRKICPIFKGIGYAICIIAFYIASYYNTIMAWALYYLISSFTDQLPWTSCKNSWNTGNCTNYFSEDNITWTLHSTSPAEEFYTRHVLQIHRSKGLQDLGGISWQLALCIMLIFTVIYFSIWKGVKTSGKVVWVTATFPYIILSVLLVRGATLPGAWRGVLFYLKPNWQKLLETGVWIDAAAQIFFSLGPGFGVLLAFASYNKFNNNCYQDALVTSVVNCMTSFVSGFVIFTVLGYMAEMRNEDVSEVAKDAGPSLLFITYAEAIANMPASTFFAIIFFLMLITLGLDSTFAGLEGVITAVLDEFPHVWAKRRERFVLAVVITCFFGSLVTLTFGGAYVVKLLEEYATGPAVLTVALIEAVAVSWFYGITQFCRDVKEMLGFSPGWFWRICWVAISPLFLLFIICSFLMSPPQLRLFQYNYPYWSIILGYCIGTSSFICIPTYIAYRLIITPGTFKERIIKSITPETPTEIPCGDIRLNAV
Chain of serotoninergic 5-HT2A receptor (P28223 whole entry): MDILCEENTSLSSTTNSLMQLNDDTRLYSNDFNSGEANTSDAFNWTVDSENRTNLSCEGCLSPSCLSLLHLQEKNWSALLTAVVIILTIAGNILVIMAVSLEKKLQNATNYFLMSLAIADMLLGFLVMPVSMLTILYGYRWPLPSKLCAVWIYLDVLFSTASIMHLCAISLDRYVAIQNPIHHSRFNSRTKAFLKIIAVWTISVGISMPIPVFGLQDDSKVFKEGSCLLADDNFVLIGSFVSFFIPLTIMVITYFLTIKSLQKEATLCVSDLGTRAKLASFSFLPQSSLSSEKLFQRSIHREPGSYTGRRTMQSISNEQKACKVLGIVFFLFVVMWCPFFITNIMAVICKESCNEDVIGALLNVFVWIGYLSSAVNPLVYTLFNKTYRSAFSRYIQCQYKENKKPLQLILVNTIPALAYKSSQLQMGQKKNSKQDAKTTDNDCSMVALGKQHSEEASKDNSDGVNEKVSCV
Chain of serotoninergic 5-HT6 receptor (P50406 whole entry): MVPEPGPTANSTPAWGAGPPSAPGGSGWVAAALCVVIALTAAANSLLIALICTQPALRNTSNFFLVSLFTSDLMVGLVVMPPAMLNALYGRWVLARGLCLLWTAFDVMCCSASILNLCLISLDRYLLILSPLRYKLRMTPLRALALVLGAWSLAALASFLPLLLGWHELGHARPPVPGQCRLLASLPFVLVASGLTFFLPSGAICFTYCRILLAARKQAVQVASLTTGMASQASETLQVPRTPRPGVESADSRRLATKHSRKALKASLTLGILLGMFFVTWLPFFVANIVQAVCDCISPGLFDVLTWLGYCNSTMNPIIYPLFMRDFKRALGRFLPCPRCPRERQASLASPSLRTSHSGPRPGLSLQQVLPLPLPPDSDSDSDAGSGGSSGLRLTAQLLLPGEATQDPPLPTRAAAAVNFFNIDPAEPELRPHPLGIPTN

Consider `O=S(=O)(NCCCCN1CCN(c2nsc3ccccc23)CC1)c1ccc(Cl)c(Cl)c1` [Compound 228, N-[4-[4-(1,2-Benzothiazol-3-yl)piperazin-1-yl]butyl]-3,4-dichlorobenzenesulphonamide], for which the inhibition at 1 µM in assay [1] stood at 87%; in assay [2], 98%; at dopaminergic D2 receptor it was 103%; at dopaminergic D3 receptor it was 92%; in assay [3], 16%; in assay [4], 81%. Further, in assay [5], the inhibition at 1 µM was 91%. Further, the “α1 [%]” value in the assay on adrenergic α1 receptor is reported as 92%.

`Cc1[nH]c2ccc(Cl)cc2c1C1=CCN(CCNS(=O)(=O)c2cccc3ccccc23)CC1` [Compound 447, N-[2-[4-(5-Chloro-2-methyl-1H-indol-3-yl)-3,6-dihydro-2H-pyridin-1-yl]ethyl]-naphthalene-1-sulphonamide]: the inhibition at 1 µM was 106% in assay [1]; 34% in assay [2]; 3% on dopaminergic D2 receptor; -17% on dopaminergic D3 receptor; 23% in assay [3]; 42% in assay [4]. In addition, in assay [5], the inhibition at 1 µM was found to be 19%. Further, the “α1 [%]” value in the assay on adrenergic α1 receptor is 1%.

As to `O=S(=O)(NCCCCN1CCC(c2noc3cc(F)ccc23)CC1)c1c[nH]c2ncccc12` [Compound 323, N-[4-[4-(6-Fluoro-1,2-benzoxazol-3-yl)piperidin-1-yl]butyl]-1H-pyrrolo[2,3-b]pyridine-3-sulphonamide], the inhibition at 1 µM in assay [1] is 92%; in assay [2], 93%; at dopaminergic D2 receptor, 105%; at dopaminergic D3 receptor, 96%; in assay [3] it was 41%; in assay [4] it was 45%. In addition, in assay [5], the inhibition at 1 µM was found to be 96%. The “α1 [%]” value in the assay with adrenergic α1 receptor is reported as 103%.

In the case of `Cc1[nH]c2ccc(Cl)cc2c1C1=CCN(CCCCNS(=O)(=O)c2cccc(Cl)c2)CC1` [Compound 137, N-[4-[4-(5-Chloro-2-methyl-1H-indol-3-yl)-3,6-dihydro-2H-pyridin-1-yl]butyl]-3-chlorobenzenesulphonamide], the inhibition at 1 µM turned out to be 91% in assay [1]; 33% in assay [2]; 65% on dopaminergic D2 receptor; 92% at dopaminergic D3 receptor; 38% in assay [3]; 39% in assay [4]. Besides, the inhibition at 1 µM in assay [5] was found to be 47%. In the assay with adrenergic α1 receptor, the “α1 [%]” value is listed as 10%.

`Cc1[nH]c2ccc(Cl)cc2c1C1=CCN(CCCCNS(=O)(=O)c2cccc3ccccc23)CC1` [Compound 366, N-[4-[4-(5-Chloro-2-methyl-1H-indol-3-yl)-3,6-dihydro-2H-pyridin-1-yl]butyl]-naphthalene-1-sulphonamide]: the inhibition at 1 µM in assay [1] stood at 98%; in assay [2], 53%; on dopaminergic D2 receptor, 54%; on dopaminergic D3 receptor, 81%; in assay [3], 8%; in assay [4], 34%. Besides, in assay [5], the inhibition at 1 µM amounted to 49%. In the assay with adrenergic α1 receptor, the “α1 [%]” value is listed as 8%.

In the case of `O=S(=O)(NCCCCN1CCC(c2noc3cc(F)ccc23)CC1)c1ccc(Cl)c(Cl)c1` [Compound 297, 3,4-Dichloro-N-[4-[4-(6-fluoro-1,2-benzoxazol-3-yl)piperidin-1-yl]butyl]benzenesulphonamide], the inhibition at 1 µM in assay [1] is 87%; in assay [2], 88%; at dopaminergic D2 receptor, 93%; at dopaminergic D3 receptor it was 100%; in assay [3], 23%; in assay [4] it was 31%. For the same compound, the inhibition at 1 µM in assay [5] is 95%. Further, in the assay with adrenergic α1 receptor, the “α1 [%]” value worked out at 100%.

In the case of `COc1cccc(S(=O)(=O)NCCCN2CCC(c3noc4cc(F)ccc34)CC2)c1` [Compound 332, N-[3-[4-(6-Fluoro-1,2-benzoxazol-3-yl)piperidin-1-yl]propyl]-3-methoxybenzenesulphonamide], the inhibition at 1 µM was found to be 95% in assay [1]; 64% in assay [2]; 83% on dopaminergic D2 receptor; 96% on dopaminergic D3 receptor; 18% in assay [3]; 71% in assay [4]. Further, the inhibition at 1 µM in assay [5] was 97%. For the same compound, the “α1 [%]” value in the assay on adrenergic α1 receptor worked out at 107%.

For the compound `O=S(=O)(NCCCCN1CCC(c2noc3cc(F)ccc23)CC1)c1cnc2ccccn12` [Compound 322, N-[4-[4-(6-Fluoro-1,2-benzoxazol-3-yl)piperidin-1-yl]butyl]imidazo[1,2-a]pyridine-3-sulphonamide], the inhibition at 1 µM in assay [1] turned out to be 62%; in assay [2], 95%; at dopaminergic D2 receptor, 96%; on dopaminergic D3 receptor it was 93%; in assay [3], 16%; in assay [4] it was 43%. Besides, the inhibition at 1 µM in assay [5] was found to be 94%. For the same compound, the “α1 [%]” value in the assay on adrenergic α1 receptor was determined as 103%.

Consider `O=S(=O)(NCCCCN1CCN(c2cccc3c2OCCO3)CC1)c1cccc(Cl)c1` [Compound 390, 3-Chloro-N-[4-[4-(2,3-dihydro-1,4-benzodioxin-5-yl)piperazin-1-yl]butyl]benzenesulphonamide], for which the inhibition at 1 µM in assay [1] is 26%; in assay [2], 66%; at dopaminergic D2 receptor it was 61%; on dopaminergic D3 receptor it was 81%; in assay [3], -15%; in assay [4] it was 101%. Besides, in assay [5], the inhibition at 1 µM came to 59%. Further, the “α1 [%]” value with adrenergic α1 receptor stood at 73%.

With `O=S(=O)(NCCCCN1CCN(c2noc3ccccc23)CC1)c1cnc2ccccn12` [Compound 293, N-[4-[4-(1,2-Benzoxazol-3-yl)piperazin-1-yl]butyl]imidazo[1,2-a]pyridine-3-sulphonamide], the inhibition at 1 µM in assay [1] came to 44%; in assay [2] it was 93%; at dopaminergic D2 receptor it was 85%; on dopaminergic D3 receptor, 65%; in assay [3], 3%; in assay [4], 57%. Moreover, the inhibition at 1 µM in assay [5] stood at 89%. The “α1 [%]” value in the assay on adrenergic α1 receptor is given as 98%.

On to `O=S(=O)(NCCCCN1CCN(c2cccc3c2OCCO3)CC1)c1cccc(O)c1` [Compound 393, N-[4-[4-(2,3-Dihydro-1,4-benzodioxin-5-yl)piperazin-1-yl]butyl]-3-hydroxybenzenesulphonamide], for which the inhibition at 1 µM in assay [1] is 9%; in assay [2] it was 91%; at dopaminergic D2 receptor, 46%; on dopaminergic D3 receptor it was 92%; in assay [3] it was -7%; in assay [4], 93%. The inhibition at 1 µM in assay [5] came to 47%. In addition, in the assay on adrenergic α1 receptor, the “α1 [%]” value stood at 91%.

On to `O=S(=O)(NCCCN1CCN(c2nsc3ccccc23)CC1)c1cnc2ccccn12` [Compound 76, N-[3-[4-(1,2-Benzothiazol-3-yl)piperazin-1-yl]propyl]imidazo[1,2-a]pyridine-3-sulphonamide], for which the inhibition at 1 µM in assay [1] was determined as 70%; in assay [2], 86%; at dopaminergic D2 receptor, 94%; on dopaminergic D3 receptor, 71%; in assay [3] it was 15%; in assay [4], 90%. Also, the inhibition at 1 µM in assay [5] amounted to 81%. Besides, the “α1 [%]” value in the assay with adrenergic α1 receptor is on record as 95%.

As to `O=S(=O)(NCCCN1CCN(c2cccc3c2OCCO3)CC1)c1cccc(F)c1` [Compound 409, N-[3-[4-(2,3-Dihydro-1,4-benzodioxin-5-yl)piperazin-1-yl]propyl]-3-fluorobenzenesulphonamide], the inhibition at 1 µM in assay [1] is -9%; in assay [2], 91%; at dopaminergic D2 receptor, 79%; on dopaminergic D3 receptor, 85%; in assay [3], 2%; in assay [4], 81%. The inhibition at 1 µM in assay [5] amounted to 66%. Also, the “α1 [%]” value in the assay on adrenergic α1 receptor is given as 81%.

Turning to `O=C1COc2c(cccc2N2CCN(CCCCNS(=O)(=O)c3ccc4ccccc4c3)CC2)N1` [Compound 427, N-[4-[4-(3-oxo-4H-1,4-benzoxazin-8-yl)piperazin-1-yl]butyl]naphthalene-2-sulphonamide], the inhibition at 1 µM in assay [1] came to 36%; in assay [2], 98%; on dopaminergic D2 receptor, 83%; at dopaminergic D3 receptor, 104%; in assay [3], 13%; in assay [4] it was 84%. For the same compound, in assay [5], the inhibition at 1 µM is 49%. In the assay on adrenergic α1 receptor, the “α1 [%]” value came out at 86%.
